Laboratory results reported in ChEMBL document CHEMBL1133537, “Chiral derivatives of 2-cyclohexylideneperhydro-4,7-methanoindenes, a novel class of nonsteroidal androgen receptor ligand: synthesis, X-ray analysis, and biological activity” (J Med Chem, 2000).

Key:
Androgen receptor [1] = molecular target: T1, Androgen receptor (Rattus norvegicus, UniProt P15207)
T1 sequence (P15207 whole entry): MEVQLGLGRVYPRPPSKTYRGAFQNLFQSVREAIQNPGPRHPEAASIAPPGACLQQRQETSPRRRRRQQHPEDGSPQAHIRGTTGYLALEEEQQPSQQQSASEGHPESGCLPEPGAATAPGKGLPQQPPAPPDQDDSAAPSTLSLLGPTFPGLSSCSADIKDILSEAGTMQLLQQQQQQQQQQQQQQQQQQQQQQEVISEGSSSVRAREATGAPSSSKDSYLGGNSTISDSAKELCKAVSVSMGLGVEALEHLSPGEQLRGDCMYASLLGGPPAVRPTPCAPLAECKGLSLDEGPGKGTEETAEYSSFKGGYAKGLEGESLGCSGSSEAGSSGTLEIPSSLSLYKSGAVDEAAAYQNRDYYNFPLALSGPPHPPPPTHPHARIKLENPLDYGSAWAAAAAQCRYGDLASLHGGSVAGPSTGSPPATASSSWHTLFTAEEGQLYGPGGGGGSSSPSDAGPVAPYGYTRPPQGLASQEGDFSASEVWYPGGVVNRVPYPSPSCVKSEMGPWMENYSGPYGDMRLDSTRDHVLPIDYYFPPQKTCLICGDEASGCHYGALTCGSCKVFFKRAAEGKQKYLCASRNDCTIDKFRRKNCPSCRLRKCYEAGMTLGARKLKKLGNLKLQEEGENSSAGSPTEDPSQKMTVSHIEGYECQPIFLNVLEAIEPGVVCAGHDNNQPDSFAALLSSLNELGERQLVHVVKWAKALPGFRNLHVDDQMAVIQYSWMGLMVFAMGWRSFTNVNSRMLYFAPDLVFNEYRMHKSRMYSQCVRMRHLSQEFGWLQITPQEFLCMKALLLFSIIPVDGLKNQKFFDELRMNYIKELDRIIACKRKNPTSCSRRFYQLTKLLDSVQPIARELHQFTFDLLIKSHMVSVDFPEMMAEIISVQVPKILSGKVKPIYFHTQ
Description: Ability to inhibit binding of [3H]R-1881 to rat ventral prostate cytosolic androgen receptor was measured in a radioligand binding assay.

[2] = Eudismic ratio which is the ratio of potency of eutomer and distomer.
Androgen receptor [3] = molecular target: T1, Androgen receptor; assay: […] binding affinity fot cytosolic androgen receptor

IC50 (Androgen receptor [1]) [µM] | Ratio [2] | Compound | Ki (Androgen receptor [3]) [µM]
13.5 | – | C#C[C@]1(O)C[C@@H]2C[C@H]1[C@H]1CC(=C3CCC(=O)CC3)C[C@@H]21 | –
15.6 | – | O=C1CCC(=C2C[C@H]3[C@H]4C[C@@H]([C@H]3C2)[C@](O)(C(F)(F)F)C4)CC1 | –
33 | 2.3 | O=C1CCC(=C2C[C@@H]3[C@H]4CC(=O)[C@H](C4)[C@@H]3C2)CC1 | –
14.2 | – | O=C1CCC(=C2C[C@H]3[C@@H]4CC(=O)[C@@H](C4)[C@H]3C2)CC1 | –
62.5 | – | C=C[C@@]1(O)C[C@H]2C[C@@H]1[C@@H]1CC(=C3CCC(=O)CC3)C[C@H]21 | –
41.2 | 2.6 | O=C1CCC(=C2C[C@@H]3[C@@H]4C[C@H]([C@@H]3C2)[C@@](O)(C(F)(F)F)C4)CC1 | –
57 | 4.2 | C#C[C@@]1(O)C[C@H]2C[C@@H]1[C@@H]1CC(=C3CCC(=O)CC3)C[C@H]21 | –
– | – | C#C[C@]1(O)CC[C@H]2[C@@H]3CCC4Cc5nn(S(C)(=O)=O)cc5C[C@]4(C)[C@H]3CC[C@@]21C (stereo partly drawn) | 2.2
27.4 | – | C[C@@]1(O)C[C@H]2C[C@@H]1[C@@H]1CC(=C3CCC(=O)CC3)C[C@H]21 | –

Compound | IC50 (Androgen receptor [1]) [µM] | Ratio [2] | Ki (Androgen receptor [3]) [µM]
O=C1CCC(=C2C[C@H]3[C@@H](C2)[C@H]2C[C@@H]3[C@H](O)C2)CC1 | 10.4 | – | –
O=C1CCC(=C2C[C@@H]3[C@H](C2)[C@@H]2C[C@H]3[C@@H](O)C2)CC1 | 3.9 | 2.7 | –
O=C1CCC(=C2C[C@@H]3[C@H](C2)[C@@H]2C[C@H]3[C@H](O)C2)CC1 | 35.9 | 15.5 | 0.45
